The target of the first assay is T1, KRAS G12C 1-169, his-tagged protein, GDP-loaded (Homo sapiens, UniProt P01116, G12C).
T1 construct: KRAS G12C 1-169, his-tagged protein, GDP-loaded
Description: Biochemical assay: covalent modification of KRAS G12C measured by mass spectrometry (RapidFire/TOF or Q-Exactive). Conditions: Example 14 comparative biochemical data; tested according to the above procedures (Example 1). Type of assay: binding. Here is the method: Test compounds were prepared as 10 mM stock solutions in DMSO (Fisher cat #BP-231-100). KRAS G12C 1-169, his-tagged protein, GDP-loaded is diluted to 2 μM or 0.5 μM in buffer (20 mM Hepes, 150 mM NaCl, 1 mM MgCl2). Compounds were tested for activity as follows:
Compounds were diluted to 50× final test concentration in DMSO in 96-well storage plates. Compound stock solutions were vortexed before use and observed carefully for any sign of precipitation. Dilutions are as follow: • For 100 μM final compound concentration, compounds were diluted to 5000 μM (5 μL 10 mM compound stock+5 μL DMSO and mixed well by pipetting. • For 30 μM final compound concentration, compounds were diluted to 1500 μM (3 μL 10 mM compound stock+17 μL DMSO) and mixed well by pipetting. • For 10 μM final compound concentration, compounds were diluted to 500 μM (2 μL 10 mM compound stock+38 μL DMSO) and mixed well by pipetting. 49 μL of the stock protein solution was added to each well of a 96-well PCR plate (Fisher cat #1423027). 1 μL of the diluted 50× compounds were added to appropriate wells in the PCR plate using 12-channel pipettor. Reactions were mixed carefully and thoroughly by pipetting up/down with a 200 μL multi-channel pipettor. The plate was sealed well with aluminum plate seal, and stored in drawer at room temperature for 10 minutes, 30 minutes, 2 hours or 24 hours. 5 μL of 2% formic acid (Fisher cat #A117) in de-ionized H2O was then added to each well followed by mixing with a pipette. The plate was then resealed with aluminum seal and stored on dry ice until analyzed as described below.
The above described assays were analyzed by mass spectrometry according to one of the following two procedures:
The MS instrument was set to positive polarity, 2 GHz resolution, and low mass (1700) mode and allowed to equilibrate for 30 minutes. The instrument was then calibrated, switched to acquisition mode and the appropriate method loaded.
After another 30 minute equilibration time, a blank batch (i.e., buffer) was run to ensure equipment is operating properly. The samples were thawed at 37° C. for 10 minutes, briefly centrifuged, and transfer to the bench top. Wells A1 and H12 were spiked with 1 μL 500 μM internal standard peptide, and the plates centrifuged at 2000×g for 5 minutes. The method was then run and masses of each individual well recorded.
The masses (for which integration data is desired) for each well were pasted into the platemap and exported from the analysis. Masses for the internal standards were exported as well. The data at 50 ppm was extracted for the +19 charge state, and identity of well A1 was assigned using the internal standard spike and integrated. Peak data was exported as a TOF list and the above steps were repeated individually, for the +20, 21, 22, 23, 24, and 25 charge states.
The masses and peak intensities of KRAS G12C protein species were measured using a Dionex RSLCnano system (Thermo Scientific) connected to a Q Exactive Plus mass spectrometer (Thermo Scientific).
[…] of sample was each loaded onto a Aeris™ 3.6 μm WIDEPORE C4 200 Å, LC Column 50×2.1 mm column maintained at 40° C. at a flow rate of 600 μL/min with 20% Solvent A (0.1% formic acid in H2O) and […] (0.1% formic acid in acetonitrile). The liquid chromatography conditions were 20% solvent B for 1 minute, 20% to 60% solvent B for 1.5 minutes, 60% to 90% solvent for 0.5 minute, 90% solvent B for 0.2 minute, 90% to 20% solvent B for 0.2 minute, and then equilibrated for 1.6 minutes before the following sample injection. The flow rate was maintained at 600 μL/min throughout the sample analysis.
The mass spectrometer was operated in profile mode at a resolution of 17500, 5 microscans, using 50 msec max injection time and an AGC target of 1×10^6, and a full mass range from 800-1850 m/z was recorded. The HCD trapping gas was optimized for maximum sensitivity for intact proteins. […]
For `C=CC(=O)N1C[C@H](C)N(c2nc(N3CC(N(C)C)C3)nc3c(F)c(-c4c(C)ccc5[nH]ncc45)c(Cl)cc23)C[C@H]1C` (atropisomer, axis not shown) [reference compound], the binding activity was found to be 71%.

The assay is the same for the next values; noted with them: covalent binding to (modification of) KRAS G12C after a ten minute incubation period.
For `C=CC(=O)N1C[C@H](C)N(c2nc(OC[C@@H]3COCCN3C)nc3c(F)c(-c4c(C)ccc5[nH]nc(C)c45)c(Cl)cc23)C[C@H]1C` [Compound 184, 1-((2R,5S)-4-(6-chloro-7-(3,5-dimethyl-1H-indazol-4-yl)-8-fluoro-2-(((S)-4-methylmorpholin-3-yl)methoxy)quinazolin-4-yl)-2,5-dimethylpiperazin-1-yl)prop-2-en-1-one], the Binding % result is recorded as “+++ (+++ indicates binding activity greater than 80%)”.
On to `C=CC(=O)N1C[C@H](C)N(c2nc(O[C@H](C)CN(C)C)nc3c(F)c(-c4c(C)ccc5[nH]nc(C6CC6)c45)c(Cl)cc23)C[C@H]1C` [Compound 231, 1-((2R,5S)-4-(6-chloro-7-(3-cyclopropyl-5-methyl-1H-indazol-4-yl)-2-((R)-1-(dimethylamino)propan-2-yloxy)-8-fluoroquinazolin-4-yl)-2,5-dimethylpiperazin-1-yl)prop-2-en-1-one], for which the Binding % result is given as “++ (++ indicates binding activity from 50 to 80%)”.
With `C=CC(=O)N1C[C@H](C)N(c2nc(N3CC(N(C)C)C3)nc3c(F)c(-c4c(C)ccc5[nH]nc(C)c45)c(Cl)cc23)C[C@H]1C` [Compound 107, 1-((2R,5S)-4-(6-chloro-7-(3,5-dimethyl-1H-indazol-4-yl)-2-(3-(dimethylamino)azetidin-1-yl)-8-fluoroquinazolin-4-yl)-2,5-dimethylpiperazin-1-yl)prop-2-en-1-one], the Binding % result is “+ (+ indicates binding activity greater than 0% and up to 50%)”.
With `C=CC(=O)N1C[C@H](C)N(c2nc(OC[C@H]3CCCN3C)nc3c(F)c(-c4c(C)ccc5[nH]nc(C6CC6)c45)c(Cl)cc23)C[C@H]1C` [Compound 160, 1-((2R,5S)-4-(6-chloro-7-(3-cyclopropyl-5-methyl-1H-indazol-4-yl)-8-fluoro-2-(((R)-1-methylpyrrolidin-2-yl)methoxy)quinazolin-4-yl)-2,5-dimethylpiperazin-1-yl)prop-2-en-1-one], the Binding % result is recorded as “+++ (+++ indicates binding activity greater than 80%)”.
Consider `C=CC(=O)N1CCN(c2nc(N3CC(N(C)C)C3)nc3c(F)c(-c4c(C)ccc5[nH]nc(N)c45)c(Cl)cc23)CC1` (atropisomer, axis not shown) [Compound 37, (R)-1-(4-(7-(3-amino-5-methyl-1H-indazol-4-yl)-6-chloro-2-(3-(dimethylamino)azetidin-1-yl)-8-fluoroquinazolin-4-yl)piperazin-1-yl)prop-2-en-1-one], for which the Binding % result is “+++ (+++ indicates binding activity greater than 80%)”.
As for `C=CC(=O)N1C[C@H](C)N(c2nc(N3CC(N(C)C)C3)nc3c(F)c(-c4c(F)ccc5ccn(C)c45)c(Cl)cc23)C[C@H]1C` [Compound 229, 1-((2R,5S)-4-(6-chloro-2-(3-(dimethylamino)azetidin-1-yl)-8-fluoro-7-(6-fluoro-1-methyl-1H-indol-7-yl)quinazolin-4-yl)-2,5-dimethylpiperazin-1-yl)prop-2-en-1-one], the Binding % entry is on record as “+++ (+++ indicates binding activity greater than 80%)”.
As for `C=CC(=O)N1C[C@H](C)N(c2nc(N3CC(N(C)C)C3)nc3c(F)c(-c4c(C)ccc5ccn(C)c45)c(Cl)cc23)C[C@H]1C` [Compound 202, 1-((2R,5S)-4-((S)-6-chloro-7-(1,6-dimethyl-1H-indol-7-yl)-2-(3-(dimethylamino)azetidin-1-yl)-8-fluoroquinazolin-4-yl)-2,5-dimethylpiperazin-1-yl)prop-2-en-1-one], the Binding % result was “+ (+ indicates binding activity greater than 0% and up to 50%)”.
On to `C=CC(=O)N1CC2CCC(C1)N2c1nc(N2CC(N(C)C)C2)nc2c(F)c(-c3c(C)ccc4[nH]nc(N)c34)c(Cl)cc12` [Compound 43, 1-((1R,5S)-8-(7-(3-amino-5-methyl-1H-indazol-4-yl)-6-chloro-2-(3-(dimethylamino)azetidin-1-yl)-8-fluoroquinazolin-4-yl)-3,8-diazabicyclo[3.2.1]oc-tan-3-yl)prop-2-en-1-one], for which the Binding % entry was “+ (+ indicates binding activity greater than 0% and up to 50%)”.
Consider `C=CC(=O)N1C[C@H](C)N(c2nc(N3CC(NC)C3)nc3c(F)c(-c4c(C)ccc5cnn(C)c45)c(Cl)cc23)C[C@H]1C` (atropisomer, axis not shown) [Compound 139, 1-((2R,5S)-4-((S)-6-chloro-7-(1,6-dimethyl-1H-indazol-7-yl)-8-fluoro-2-(3-(methylamino)azetidin-1-yl)quinazolin-4-yl)-2,5-dimethylpiperazin-1-yl)prop-2-en-1-one], for which the Binding % entry is “+ (+ indicates binding activity greater than 0% and up to 50%)”.
`C=CC(=O)N1C[C@H](C)N(c2nc(OCCN3CC[C@H](F)C3)nc3c(F)c(-c4c(C)ccc5[nH]nc(N)c45)c(Cl)cc23)C[C@H]1C` [Compound 109, 1-((2R,5S)-4-(7-(3-amino-5-methyl-1H-indazol-4-yl)-6-chloro-8-fluoro-2-(2-((S)-3-fluoropyrrolidin-1-yl)ethoxy)quinazolin-4-yl)-2,5-dimethylpiperazin-1-yl)prop-2-en-1-one]: the Binding % result is reported as “+++ (+++ indicates binding activity greater than 80%)”.
As for `C=CC(=O)N1[C@H](C)CN(c2nc(N3CC(N(C)C)C3)nc3c(F)c(-c4c(C)ccc5[nH]nc(C6CC6)c45)c(Cl)cc23)C[C@@H]1C` (atropisomer, axis not shown) [Compound 134, 1-((2S,6R)-4-((R)-6-chloro-7-(3-cyclopropyl-5-methyl-1H-indazol-4-yl)-2-(3-(dimethylamino)azetidin-1-yl)-8-fluoroquinazolin-4-yl)-2,6-dimethylpiperazin-1-yl)prop-2-en-1-one], the Binding % result is on record as “+++ (+++ indicates binding activity greater than 80%)”.
In the case of `C=CC(=O)N1C[C@H](C)N(c2nc(OC[C@@H]3CCCN3C(C)C)nc3c(F)c(-c4c(C)ccc5cnn(C)c45)c(Cl)cc23)C[C@H]1C` [Compound 238, 1-((2R,5S)-4-(6-chloro-7-(1,6-dimethyl-1H-indazol-7-yl)-8-fluoro-2-(((S)-1-isopropylpyrrolidin-2-yl)methoxy)quinazolin-4-yl)-2,5-dimethylpiperazin-1-yl)prop-2-en-1-one], the Binding % entry is on record as “++ (++ indicates binding activity from 50 to 80%)”.
On the same count and under the same terms, as for `C=CC(=O)N1C[C@H](C)N(c2nc(NCCC(=O)N(C)C)nc3c(F)c(-c4c(C)ccc5onc(N)c45)c(Cl)cc23)C[C@H]1C` [Compound 64, 3-(4-((2S,5R)-4-acryloyl-2,5-dimethylpiperazin-1-yl)-7-(3-amino-5-methylbenzo[d]isoxa-zol-4-yl)-6-chloro-8-fluoroquinazolin-2-ylamino)-N,N-dimethylpropanamide], the entry is “++ (++ indicates binding activity from 50 to 80%)”; as for `C=CS(=O)(=O)N1C[C@H](C)N(c2nc(N3CC(N(C)C)C3)nc3c(F)c(-c4c(C)ccc5[nH]nc(C)c45)c(Cl)cc23)C[C@H]1C` [Compound 194, 1-(6-chloro-7-(3,5-dimethyl-1H-indazol-4-yl)-4-((2S,5R)-2,5-dimethyl-4-(vinylsulfonyl)piperazin-1-yl)-8-fluoroquinazolin-2-yl)-N,N-dimethylazetidin-3-amine], “+ (+ indicates binding activity greater than 0% and up to 50%)”.

These data come from US11377441B2, “Covalent inhibitors of KRAS” (Araxes Pharma LLC, priority 2017, dated 2022).
